Patent US20260271928A1, “CONTROL OF PESTS RESISTANT TO INSECTICIDES” (Syngenta Crop Protection Ag, priority 2023, published 2026)
Read-outs that look alike come from different tables or passages of the source.

Columns and labels:
Resistant Myzus persicae = Resistant Myzus persicae (rMP); type: in vivo
Resistant Bemisia tabaci = Resistant Bemisia tabaci (rBT); type: in vivo
Procedure: (§1) Cotton leaf discs were placed upside down in petri dishes on water agar and treated with the diluted test solutions in a spray chamber. After drying, leaf discs were infested with 10 adult Bemisia tabaci. Dishes were covered with a fabric filter and sealed with a perforated plastic lid. 4 days after treatment samples were assessed for mortality.
Resistant Bemisia tabaci (rBT)
Biotype Q originally field-collected in 2000 from Almeria, Spain. […] The strain carried the mutation L925I in the voltage-gated sodium channel conferring resistance to pyrethroids. It also had higher expression of the p450 CYP6CM1 conferring metabolic resistance to neonicotinoids.

[1] = test system: Resistant Plutella xylostella; experiment: Resistant Plutella xylostella (rPLU); type: in vivo; details: for resistance of the rPLU strain to the insecticide: collected 2013, Changhua, Taiwan
Procedure: Chinese cabbage plants were treated with the diluted test solutions in a spray chamber. After drying, the leaves were cut off and placed in petri dishes with wetted filter paper. One day after treatment, the leaves were infested with 10 Plutella xylostella larvae (L3). Samples were assessed 4 days after infestation for mortality and growth regulation.
Resistant Plutella xylostella (rPLU)
A number of target-sites mutations were identified in this strain which confer resistance to pyrethroids (L1014F, T929I), organophosphates and carbamates (mAChE: A298S and G324A), and organochlorines (rdl: A298S), and diamides (ryr: G4546E).

Myzus persicae = Myzus persicae (green peach aphid), mixed population, feeding/contact (sMP); type: in vivo; details: sensitive strain, pepper plants, spray, mortality 5 days after treatment; 0 = BP80 >50 ppm
Procedure: Myzus persicae (Green Peach Aphid), Mixed Population, Feeding/Contact (sMP)
Pepper plants were infested with an Myzus persicae population of mixed ages. One day after infestation the plants were treated with the diluted test solutions in a spray chamber. 5 days after treatment samples were assessed for mortality.

Bemisia tabaci = Bemisia tabaci (cotton whitefly), adult, feeding/contact (sBT); type: in vivo; details: sensitive strain, adults on cotton leaf discs, mortality 4 days after treatment; 0 = BP80 >50 ppm
Procedure: Bemisia tabaci (Cotton Whitefly), Adult, Feeding/Contact (sBT)
as §1

Plutella xylostella = Plutella xylostella (diamond back moth), larvae, feeding/contact (sPLU); type: in vivo; details: sensitive strain, L3 larvae on Chinese cabbage, assessed 4 days after infestation; 0 = BP80 >200 ppm
Procedure: Plutella xylostella (Diamond Back Moth), Larvae, Feeding/Contact (sPLU) Chinese cabbage plants were treated with the diluted test solutions in a spray chamber. After drying, the leaves were cut off and placed in petri dishes with wetted filter paper. One day after treatment, the leaves were infested with 10 Plutella xylostella larvae (L3). Samples were assessed 4 days after infestation for mortality and growth regulation.

[2] = test system: Resistant Nilaparvata lugens; experiment: Resistant Nilaparvata lugens (rNIL); type: in vivo; details: collected 2005, Karnataka, India
Procedure: Rice plants were treated with the diluted test solutions in a spray chamber. After drying, plants were infested with ~20 Nilaparvata lugens nymphs (N5). 7 days after the treatment samples were assessed for mortality. The adults were then removed and 15 days after the treatment samples were assessed for effect on F1 generation.
Resistant Nilaparvata lugens (rNIL)
Originally collected from Hosa-Hally, Karnataka district, India in 2005.

[3] = molecular target: T1, vesicular acetylcholine transporter (VAChT) (Lucilia sericata, UniProt Z9IC98WFD0); experiment: [3H]-A1 radioligand binding and competitive displacement, Lucilia sericata head membrane
T1 sequence (Z9IC98WFD0 1-593): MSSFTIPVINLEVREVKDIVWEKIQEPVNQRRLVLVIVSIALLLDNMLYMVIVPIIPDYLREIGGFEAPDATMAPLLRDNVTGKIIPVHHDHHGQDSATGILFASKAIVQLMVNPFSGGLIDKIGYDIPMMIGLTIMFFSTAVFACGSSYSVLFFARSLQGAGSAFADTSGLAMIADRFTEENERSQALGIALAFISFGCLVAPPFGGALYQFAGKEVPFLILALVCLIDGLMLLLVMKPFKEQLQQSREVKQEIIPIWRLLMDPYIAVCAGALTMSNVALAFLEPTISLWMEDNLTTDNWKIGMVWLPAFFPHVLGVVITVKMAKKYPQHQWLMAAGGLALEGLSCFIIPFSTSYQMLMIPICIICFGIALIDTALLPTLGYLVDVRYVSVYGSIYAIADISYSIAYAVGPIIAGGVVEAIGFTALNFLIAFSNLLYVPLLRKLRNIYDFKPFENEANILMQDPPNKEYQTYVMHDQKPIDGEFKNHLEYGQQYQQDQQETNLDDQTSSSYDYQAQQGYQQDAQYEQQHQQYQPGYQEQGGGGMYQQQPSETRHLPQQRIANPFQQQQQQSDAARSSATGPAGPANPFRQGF
Procedure: Methods herein were generally adapted from this publication.
Binding of [^3H]-A1 was measured using Lucilia sericata head membrane suspended in 50 mM Tris HCL buffer (pH7.4) containing 120 mM NaCl, and 100 mM EDTA, at a protein concentration of 1 mg/ml for dispensing into 96 well plates to give 50 μg protein per well. [^3H]-A1 was added to plates as a 37 MBq/ml ethanol stock dissolved in 2.2 ml assay buffer to give an approximate final well concentration of 9 nM. Test compounds were incubated at 25° C. for 90 min with 9 nM [^3H]-A1 (or a range of concentrations for saturation analysis) at either 8 rates (where prepared manually) or 6 or 10 rates where prepared using robotics. The binding incubation was terminated by vacuum filtration through glass fibre filter mats (PerkinElmerFilterMat A, Seer Green, UK), pre-treated with 0.5% polyethyleneimine and mounted on a Tomtec cell harvester. The filters were then washed rapidly with ice-cold water, dried and bound radioactivity measured using an EG&GWallac betaplate scintillation counter after impregnating the filter with solid scintillant (PerkinElmer MeltiLex). Non specific binding was subtracted from the counts at each data point to give the specific binding. The amount of displacement was calculated as a % of the control and the IC50 calculated from a curve fitted using a single-exponential algorithm.
Data was fitted with a single-exponential model.
To identify the insecticidal target-protein for alkylysulfones we examined the ability of a range of ligands with identified target proteins to displace [^3H]-A1 from its site on Lucilia membranes (see Table X3).

[4] = Lucilia sericata head membrane, 9 nM [3H]-A1, read-out: IC50 Displacement Values of [3H]-A1
[5] = Lucilia membranes, ligands with identified target proteins, read-out: [3H]-A1 displacement IC50

CC1(C)[C@H](C(=O)O[C@H](C#N)c2cccc(Oc3ccccc3)c2)[C@@H]1/C=C(\Cl)C(F)(F)F (racemic) [Lambda-cyhalothrin]
resistance of the rMP population to the insecticide (Resistant Myzus persicae; field-collected 2009, Southern France): > 5000 fold | resistance of the rBT population to the insecticide (Resistant Bemisia tabaci; biotype Q, field-collected 2000, Almeria, Spain): 40 fold | resistance of the rPLU strain to the insecticide [1]: > 800 fold

CC[S@@](=N)(=O)c1cc(C2(C#N)CC2)cnc1-c1nc2cc(C(F)(F)F)cnc2n1C [P24, (R)-1-[5-(ethyl-sulfonimidoyl)-6-[3-methyl-6-(trifluoromethyl)imidazo[4,5-b]pyridin-2-yl]-3-pyridyl]cyclo-propanebonitrile]
pBP80 s-MP (Myzus persicae): 5.2 | pBP80 r-MP (Resistant Myzus persicae; resistant strain, pepper plants, spray, mortality 5 days after treatment, 0 = BP80 >50 ppm): 4.5 | pBP80 sBT (Bemisia tabaci): 5.1 | pBP80 rBT (Resistant Bemisia tabaci; resistant strain biotype Q, adults on cotton leaf discs, mortality 4 days after treatment, 0 = BP80 >50 ppm): 3.9

CCS(=O)(=O)c1c(N2Cc3ncc(C(F)(F)F)cc3C2=O)nc(-c2ccc(C3(C#N)CC3)cc2)n1C [P77, 1-[4-[5-ethyl-sulfonyl-1-methyl-4-[5-oxo-3-(trifluoromethyl)-7H-pyrrolo[3,4-b]pyridin-6-yl]imidazol-2-yl]phenyl]cyclopro-panecarbonitrile]
pBP80 s-PLU (Plutella xylostella): 5.8 | pBP80 r-PLU ([1]; resistant strain, L3 larvae on Chinese cabbage, assessed 4 days after infestation, 0 = BP80 >200 ppm): 5.8

CN1COCN(Cc2cnc(Cl)s2)/C1=N\[N+](=O)[O-] [Thiamethoxam]
resistance of the rNIL strain to the insecticide [2]: 200 fold

CCS(=O)(=O)c1cc(C2(C#N)CC2)cnc1-c1nc2cc3c(cc2n1C)OC(F)(F)O3 [VAChT-20]
IC50 [3, 4]: 4 nM

CC[S@](=N)(=O)c1cc(OC(C)(C)C#N)cnc1-c1nc2cc(C(F)(F)F)cnc2n1C [VAChT-27]
IC50 [3, 4]: 25 nM

CC[S@@](=N)(=O)c1cc(C2(C#N)CC2)cnc1-c1nc2cc(C(F)(F)F)ncc2n1C [VAChT-34]
IC50 [3, 4]: 40 nM

CCS(=N)(=O)c1cc(C2(C#N)CC2)cnc1-c1nc2cc(C(F)(F)F)nnc2n1C (stereo not drawn) [VAChT-35]
IC50 [3, 4]: 79 nM

CCOP(=S)(OCC)Oc1nc(Cl)c(Cl)cc1Cl [chlorpyrifos]
resistance of the rPLU strain to the insecticide [1]: 100 fold

CN/C(=N\[N+](=O)[O-])NCc1cnc(Cl)s1 [clothianidin]
resistance of the rNIL strain to the insecticide [2]: 200 fold

Cc1cc(C(F)(C(F)(F)F)C(F)(F)F)ccc1NC(=O)c1cccc(I)c1C(=O)NC(C)(C)CS(C)(=O)=O [flubendiamide]
resistance of the rPLU strain to the insecticide [1]: 300 fold

CCN(Cc1ccc(Cl)nc1)/C(=C/[N+](=O)[O-])NC [nitenpyram]
resistance of the rNIL strain to the insecticide [2]: 30 fold

Emamectin Benzoate
IC50 [3, 5]: 11300 nM

Spinosad
IC50 [3, 5]: > 13700 nM

abamectin
resistance of the rPLU strain to the insecticide [1]: > 200 fold
